# Source: patent US10253052B2, “HBED-bisphosphonates, radiometal conjugates and their use as theranostic agents” (Five Eleven Pharma Inc., priority 2015, dated 2019)
# What was measured:
# [1] = In vitro binding to hydroxyapatite; details: 20 mg hydroxyapatite in saline, 10 min at room temperature
# Outline: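 Hydroxyapatite was pre-incubated 24 h in isotonic saline, then ^68Ga-labelled compound (1 μCi) was added and incubated 10 min at room temperature. After centrifugation and two saline washes, gamma counting of supernatants and solid gave percent ^68Ga bound to hydroxyapatite.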
# [2] = In vivo biodistribution in mice; set-up: species or system normal CD-1 male mice; details: iv
# Outline: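 Normal male CD-1 mice (25-30 g) received 20-30 μCi of ^68Ga-labelled tracer or [^18F]NaF intravenously and were sacrificed at 2, 30, 60 and 120 min. Harvested organs, with tibia and femur as bone, were weighed and gamma-counted; uptake is expressed as % ID/g wet tissue.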
compound,measurement,setting,value
O=C([O-])CN(CCN(CC(=O)[O-])Cc1cc(CCC(=O)NC(P(=O)(O)O)P(=O)(O)O)ccc1[O-])Cc1cc(CCC(=O)NC2C(O)OC(CO)C(O)C2O)ccc1[O-].[68Ga+3] (centres unmarked) [[^68Ga]1b],Hydroxyapatite Binding (%),[1],91.7 ± 5.6%
same,bone to blood ratio,[2]; 2 min,0.9
same,bone to muscle ratio,[2]; 2 min,4.7
same,Biodistribution: Blood,[2]; 2 min post injection,9.22 ± 0.83 % dose/g
same,Biodistribution: Bone,[2]; 2 min post injection,8.34 ± 0.88 % dose/g
same,Biodistribution: Brain,[2]; 2 min post injection,0.20 ± 0.04 % dose/g
same,Biodistribution: Heart,[2]; 2 min post injection,3.01 ± 0.23 % dose/g
same,Biodistribution: Kidney,[2]; 2 min post injection,18.5 ± 2.45 % dose/g
same,Biodistribution: Liver,[2]; 2 min post injection,2.58 ± 0.22 % dose/g
same,Biodistribution: Lung,[2]; 2 min post injection,5.11 ± 0.28 % dose/g
same,Biodistribution: Muscle,[2]; 2 min post injection,1.79 ± 0.28 % dose/g
same,Biodistribution: Pancreas,[2]; 2 min post injection,1.51 ± 0.06 % dose/g
same,Biodistribution: Skin,[2]; 2 min post injection,2.55 ± 0.58 % dose/g
same,Biodistribution: Spleen,[2]; 2 min post injection,2.03 ± 0.13 % dose/g
same,bone to blood ratio,[2]; 30 min,20
same,bone to muscle ratio,[2]; 30 min,68
same,Biodistribution: Blood,[2]; 30 min (0.5 hr) post injection,0.83 ± 0.04 % dose/g
same,Biodistribution: Bone,[2]; 30 min (0.5 hr) post injection,16.6 ± 1.37 % dose/g
same,Biodistribution: Brain,[2]; 30 min (0.5 hr) post injection,0.03 ± 0.01 % dose/g
same,Biodistribution: Heart,[2]; 30 min (0.5 hr) post injection,0.62 ± 0.04 % dose/g
same,Biodistribution: Kidney,[2]; 30 min (0.5 hr) post injection,3.21 ± 1.59 % dose/g
same,Biodistribution: Liver,[2]; 30 min (0.5 hr) post injection,1.20 ± 0.10 % dose/g
same,Biodistribution: Lung,[2]; 30 min (0.5 hr) post injection,1.31 ± 0.29 % dose/g
same,Biodistribution: Muscle,[2]; 30 min (0.5 hr) post injection,0.24 ± 0.03 % dose/g
same,Biodistribution: Pancreas,[2]; 30 min (0.5 hr) post injection,0.24 ± 0.02 % dose/g
same,Biodistribution: Skin,[2]; 30 min (0.5 hr) post injection,0.60 ± 0.02 % dose/g
same,Biodistribution: Spleen,[2]; 30 min (0.5 hr) post injection,0.75 ± 0.22 % dose/g
same,bone to blood ratio,[2]; 60 min,50
same,bone to muscle ratio,[2]; 60 min,147
same,Biodistribution: Blood,[2]; 60 min (1 hr) post injection,0.39 ± 0.06 % dose/g
same,Biodistribution: Bone,[2]; 60 min (1 hr) post injection,19.4 ± 2.05 % dose/g
same,Biodistribution: Brain,[2]; 60 min (1 hr) post injection,0.02 ± 0.01 % dose/g
same,Biodistribution: Heart,[2]; 60 min (1 hr) post injection,0.37 ± 0.02 % dose/g
same,Biodistribution: Kidney,[2]; 60 min (1 hr) post injection,2.65 ± 0.44 % dose/g
same,Biodistribution: Liver,[2]; 60 min (1 hr) post injection,1.15 ± 0.13 % dose/g
same,Biodistribution: Lung,[2]; 60 min (1 hr) post injection,0.96 ± 0.05 % dose/g
same,Biodistribution: Muscle,[2]; 60 min (1 hr) post injection,0.13 ± 0.01 % dose/g
same,Biodistribution: Pancreas,[2]; 60 min (1 hr) post injection,0.11 ± 0.01 % dose/g
same,Biodistribution: Skin,[2]; 60 min (1 hr) post injection,0.26 ± 0.04 % dose/g
same,Biodistribution: Spleen,[2]; 60 min (1 hr) post injection,0.66 ± 0.15 % dose/g
same,bone to blood ratio,[2]; 120 min,82
same,bone to muscle ratio,[2]; 120 min,197
same,Biodistribution: Blood,[2]; 120 min post injection,0.21 ± 0.06 % dose/g
same,Biodistribution: Bone,[2]; 120 min post injection,17.1 ± 3.70 % dose/g
same,Biodistribution: Brain,[2]; 120 min post injection,0.02 ± 0.01 % dose/g
same,Biodistribution: Heart,[2]; 120 min post injection,0.28 ± 0.04 % dose/g
same,Biodistribution: Kidney,[2]; 120 min post injection,2.71 ± 0.17 % dose/g
same,Biodistribution: Liver,[2]; 120 min post injection,1.22 ± 0.07 % dose/g
same,Biodistribution: Lung,[2]; 120 min post injection,0.86 ± 0.03 % dose/g
same,Biodistribution: Muscle,[2]; 120 min post injection,0.09 ± 0.01 % dose/g
same,Biodistribution: Pancreas,[2]; 120 min post injection,0.08 ± 0.01 % dose/g
same,Biodistribution: Skin,[2]; 120 min post injection,0.18 ± 0.01 % dose/g
same,Biodistribution: Spleen,[2]; 120 min post injection,0.53 ± 0.04 % dose/g
